Drawing on patent US7662832B2, “Pyrrolo[2,3-c]pyridine derivatives and processes for the preparation thereof” (priority 2004, dated 2010), this text covers IC50 for 34 compounds.

Where a name gives a salt, the structure may show the parent alone.

The test deals with Proton Pump (H^+/K^+-ATPase) (Sus scrofa, UniProt P19156). Nature of the test: Inhibitory effects on proton pump (H^+/K^+-ATPase) activity. Type of test: biochemical. As to conditions: hog gastric vesicles; K^+ stimulated H^+/K^+-ATPase activity; 30 minutes at 37° C.
Proton Pump (H^+/K^+-ATPase), sequence (P19156 2-1034 limits assumed): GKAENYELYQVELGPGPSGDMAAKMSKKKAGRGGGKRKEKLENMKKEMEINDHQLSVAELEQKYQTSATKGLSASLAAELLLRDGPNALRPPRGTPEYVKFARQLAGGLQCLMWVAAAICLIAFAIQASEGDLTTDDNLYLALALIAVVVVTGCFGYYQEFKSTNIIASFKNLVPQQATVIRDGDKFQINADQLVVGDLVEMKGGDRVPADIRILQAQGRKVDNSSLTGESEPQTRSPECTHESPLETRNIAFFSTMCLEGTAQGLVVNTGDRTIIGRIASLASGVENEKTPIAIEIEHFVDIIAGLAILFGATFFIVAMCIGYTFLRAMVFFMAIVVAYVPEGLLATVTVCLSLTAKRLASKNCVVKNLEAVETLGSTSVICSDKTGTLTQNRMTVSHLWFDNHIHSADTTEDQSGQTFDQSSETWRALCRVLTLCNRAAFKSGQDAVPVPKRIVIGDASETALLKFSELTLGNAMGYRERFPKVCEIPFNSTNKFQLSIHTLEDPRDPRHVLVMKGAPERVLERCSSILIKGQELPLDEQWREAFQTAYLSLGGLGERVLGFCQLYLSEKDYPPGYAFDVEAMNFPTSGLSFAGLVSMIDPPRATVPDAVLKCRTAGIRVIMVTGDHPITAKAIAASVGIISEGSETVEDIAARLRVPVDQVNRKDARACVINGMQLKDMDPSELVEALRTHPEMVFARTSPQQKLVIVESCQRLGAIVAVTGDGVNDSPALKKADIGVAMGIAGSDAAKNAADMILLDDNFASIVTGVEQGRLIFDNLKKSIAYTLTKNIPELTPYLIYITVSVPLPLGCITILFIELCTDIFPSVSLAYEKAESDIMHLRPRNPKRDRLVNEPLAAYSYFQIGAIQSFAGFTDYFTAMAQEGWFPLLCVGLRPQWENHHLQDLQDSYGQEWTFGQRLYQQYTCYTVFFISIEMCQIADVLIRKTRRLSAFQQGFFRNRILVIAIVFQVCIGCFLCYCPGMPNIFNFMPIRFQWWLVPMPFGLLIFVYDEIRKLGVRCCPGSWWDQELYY
Proton Pump (H^+/K^+-ATPase), sequence (P18434 whole entry partner): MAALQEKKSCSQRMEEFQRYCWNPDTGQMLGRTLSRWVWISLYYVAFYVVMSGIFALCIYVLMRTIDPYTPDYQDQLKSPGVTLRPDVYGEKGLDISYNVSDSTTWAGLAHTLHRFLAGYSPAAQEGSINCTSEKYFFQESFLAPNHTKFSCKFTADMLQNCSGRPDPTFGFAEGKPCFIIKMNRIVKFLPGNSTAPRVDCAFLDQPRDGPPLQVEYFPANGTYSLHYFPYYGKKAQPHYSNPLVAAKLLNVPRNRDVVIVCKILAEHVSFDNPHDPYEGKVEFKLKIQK
As a reminder, the IC50 is the concentration that gives 50% inhibition. A high value points to lower potency. `Cc1[nH]c2c(-c3ccc(F)cc3)nccc2c1C` [Example 325, 7-(4-fluorophenyl)-2,3-dimethyl-1H-pyrrolo[2,3-c]pyridine hydrochloride] came in with an IC50 of 1.98 µM. This lies in the single-digit micromolar range. As to `COc1cccc(Cn2c(C)c(C)c3ccnc(-c4ccc(C)cc4)c32)c1` [Example 278, 1-(3-methoxybenzyl)-2,3-dimethyl-7-(p-tolyl)-1H-pyrrolo[2,3-c]pyridine hydrochloride], the IC50 stood at 0.39 µM. Compared with the last compound, the IC50 is about 5.1-fold lower. Take `C=CCn1c(C)c(C)c2ccnc(N3CCc4ccc(F)cc4C3C)c21` (stereo not shown) [Example 544, 2-(1-allyl-2,3-dimethyl-1H-pyrrolo[2,3-c]pyridin-7-yl)-7-fluoro-1-methyl-1,2,3,4-tetrahydroisoquinoline hydrochloride]: the IC50 is 0.022 µM.

`C=CCn1c(C)c(C)c2ccnc(N(C)Cc3ccc(F)cc3)c21` [Example 140, 1-allyl-7-[N-(4-fluorobenzyl)-N-methyl]amino-2,3-dimethyl-1H-pyrrolo[2,3-c]pyridine hydrochloride] had an IC50 of 0.24 µM. With `COCCn1c(C)c(C)c2cc(C(=O)N3CCN(C)CC3)nc(N3CCc4ccccc4C3)c21` [Example 821, [7-(3,4-dihydro-1H-isoquinolin-2-yl)-1-(2-methoxyethyl)-2,3-dimethyl-1H-pyrrolo[2,3-c]pyridin-5-yl]-(4-methylpiperazin-1-yl)-methanone hydrochloride], the IC50 was found to be 0.026 µM. The same measure for `Cc1c(C)n(CCc2ccc(S(C)(=O)=O)cc2)c2c(N3CCc4ccccc4C3)nccc12` [Example 512, 1-[2-(4-methylsulfonylphenyl)ethyl]-7-(1,2,3,4-tetrahydroisoquinolin-2-yl)-2,3-dimethyl-1H-pyrrolo[2,3-c]pyridine hydrochloride]: 0.13 µM; for `Cc1c(C)n(Cc2cccnc2)c2c(N3CCc4ccccc4C3)nccc12` [Example 516, 1-(pyridin-3-ylmethyl)-7-(1,2,3,4-tetrahydroisoquinolin-2-yl)-2,3-dimethyl-1H-pyrrolo[2,3-c]pyridine hydrochloride]: 0.124 µM; for `COc1cccc(Cn2c(C)c(C)c3ccnc(COc4ccc(C)cc4C)c32)c1` [Example 68, 1-(3-methoxybenzyl)-2,3-dimethyl-7-(2,4-dimethylphenoxymethyl)-1H-pyrrolo[2,3-c]pyridine hydrochloride]: 0.212 µM. `Cc1c(C)n(CC2CC2)c2c(NCc3ccccc3)nccc12` [Example 185, 7-benzylamino-1-cyclopropylmethyl-2,3-dimethyl-1H-pyrrolo[2,3-c]pyridine hydrochloride] had an IC50 of 0.32 µM. “[1-allyl-7-(3,4-dihydro-1H-isoquinolin-2-yl)-2,3-dimethyl-1H-pyrrolo[2,3-c]pyridin-5-yl]-methylamine hydrochloride [Example 887]” gave an IC50 of 0.009 µM. Against the preceding compound, the IC50 is about 36-fold lower.

`Cc1c(C)n(Cc2ccccc2)c2c(CCc3ccccc3)nccc12` [Example 442, 1-benzyl-2,3-dimethyl-7-phenethyl-1H-pyrrolo[2,3-c]pyridine hydrochloride] registered an IC50 of 0.1 µM. For `Cc1c(C)n(Cc2cccc(F)c2)c2c(N3CCc4cc(F)ccc4C3C)nccc12` (stereo not shown) [Example 565, 6-fluoro-2-[1-(3-fluorobenzyl)-2,3-dimethyl-1H-pyrrolo[2,3-c]pyridin-7-yl]-1-methyl-1,2,3,4-tetrahydroisoquinoline hydrochloride] the value was 0.33 µM; for `Cc1c(C)n(Cc2ccccc2F)c2c(CN(C)c3ccc(F)cc3)nccc12` [Example 115, N-[1-(2-fluorobenzyl)-2,3-dimethyl-1H-pyrrolo[2,3-c]pyridin-7-ylmethyl]-N-(4-fluorophenyl)-methylamine hydrochloride], 0.142 µM. The same measure for `CCN1CCN(C(=O)c2cc3c(C)c(C)n(CC4CC4)c3c(N3CCc4ccccc4C3)n2)CC1` [Example 818, [1-cyclopropylmethyl-7-(3,4-dihydro-1H-isoquinolin-2-yl)-2,3-dimethyl-1H-pyrrolo[2,3-c]pyridin-5-yl]-(4-ethylpiperazin-1-yl)-methanone hydrochloride]: 0.034 µM; for `Cc1c(C)n(Cc2ccccc2)c2c(CN(C)c3ccc(F)cc3)nccc12` [Example 111, N-(1-benzyl-2,3-dimethyl-1H-pyrrolo[2,3-c]pyridin-7-ylmethyl)-N-(4-fluorophenyl)-methylamine hydrochloride]: 0.025 µM. The same measure for `CCn1c(C)c(C)c2cc(C(=O)N3CCCC3)nc(N3CCc4ccccc4C3)c21` [Example 803, [7-(3,4-dihydro-1H-isoquinolin-2-yl)-1-ethyl-2,3-dimethyl-1H-pyrrolo[2,3-c]pyridin-5-yl]-(pyrrolidin-1-yl)-methanone hydrochloride]: 0.035 µM; for `C=CCn1c(C)c(C)c2cc(C(=O)N3CCOCC3)nc(N3CCc4ccccc4C3)c21` [Example 777, [1-allyl-7-(3,4-dihydro-1H-isoquinolin-2-yl)-2,3-dimethyl-1H-pyrrolo[2,3-c]pyridin-5-yl]-(morpholin-4-yl)-methanone hydrochloride]: 0.0016 µM. Regarding `COCn1c(C)c(C)c2cc(C(=O)N3CCCCC3)nc(N3CCc4ccccc4C3)c21` [Example 800, [7-(3,4-dihydro-1H-isoquinolin-2-yl)-1-methoxymethyl-2,3-dimethyl-1H-pyrrolo[2,3-c]pyridin-5-yl]-(piperidin-1-yl)-methanone hydrochloride], the IC50 was 0.091 µM. Compared with the last compound, the IC50 is about 57-fold higher.

Compound `Cc1c(C)n(Cc2cccc(Cl)c2)c2c(N3CCc4ccccc4C3)nc(C#N)cc12` [Example 689, 1-(3-chlorobenzyl)-7-(3,4-dihydro-1H-isoquinolin-2-yl)-2,3-dimethyl-1H-pyrrolo[2,3-c]pyridin-5-carbonitrile] showed an IC50 of 0.331 µM. In the case of `Cc1c(C)n(Cc2cccc(F)c2)c2c(CNc3ccc(F)cc3)nccc12` [Example 91, N-[1-(3-fluorobenzyl)-2,3-dimethyl-1H-pyrrolo[2,3-c]pyridin-7-ylmethyl]-4-fluorophenylamine hydrochloride], 0.209 µM corresponded to half-maximal inhibition (IC50).

`C=CCn1c(C)c(C)c2ccnc(-c3ccc(SC)cc3)c21` [Example 263, 1-allyl-2,3-dimethyl-7-(4-methylsulfanylphenyl)-1H-pyrrolo[2,3-c]pyridine hydrochloride]: the IC50 was 0.075 µM. This IC50 is about 2.8-fold lower than that of the compound before.

In turn, `C=Cc1ccc(-c2nccc3c(C)c(C)n(Cc4ccc(F)cc4)c23)cc1` [Example 258, 2,3-dimethyl-1-(4-fluorobenzyl)-7-(4-vinylphenyl)-1H-pyrrolo[2,3-c]pyridine hydrochloride] showed an IC50 of 0.33 µM. With `Cc1c(C)n(CC2CC2)c2c(N3CCc4ccccc4C3)nc(C(=O)O)cc12` [Example 740, 1-cyclopropylmethyl-7-(3,4-dihydro-1H-isoquinolin-2-yl)-2,3-dimethyl-1H-pyrrolo[2,3-c]pyridin-5-carboxylic acid], the IC50 came out at 0.267 µM. Regarding `C=CCn1c(C)c(C)c2cc(CN3CCN(C)CC3)nc(N3CCc4ccccc4C3)c21` [Example 879, 2-[1-allyl-2,3-dimethyl-5-(4-methylpiperazin-1-ylmethyl)-1H-pyrrolo[2,3-c]pyridin-7-yl]-1,2,3,4-tetrahydroisoquinoline hydrochloride], the IC50 turned out to be 0.05 µM. Regarding `C#CCn1c(C)c(C)c2ccnc(-c3ccc(C)cc3)c21` [Example 280, 2,3-dimethyl-1-(prop-2-ynyl)-7-(p-tolyl)-1H-pyrrolo[2,3-c]pyridine hydrochloride], the IC50 was 0.345 µM.

For `CCn1c(C)c(C)c2cc(N)nc(N3CCc4ccccc4C3)c21` [Example 849, 7-(3,4-dihydro-1H-isoquinolin-2-yl)-1-ethyl-2,3-dimethyl-1H-pyrrolo[2,3-c]pyridin-5-amine hydrochloride], half-maximal inhibition (IC50) was put at 0.129 µM. For `COc1ccc(Cn2c(C)c(C)c3ccnc(N4CCc5cc(F)ccc5C4C)c32)cc1` (stereo not shown) [Example 566, 6-fluoro-2-[1-(4-methoxybenzyl)-2,3-dimethyl-1H-pyrrolo[2,3-c]pyridin-7-yl]-1-methyl-1,2,3,4-tetrahydroisoquinoline hydrochloride] the value was 0.3 µM; for `C=CCn1c(C)c(C)c2cc(C(=O)NC)nc(N3CCc4ccccc4C3)c21` [Example 757, 1-allyl-7-(3,4-dihydro-1H-isoquinolin-2-yl)-2,3-dimethyl-N-methyl-1H-pyrrolo[2,3-c]pyridin-5-carboxamide hydrochloride], 0.03 µM. The same measure for `COc1ccc(-c2nccc3c(C)c(C)n(Cc4ccccc4)c23)cc1` [Example 350, 1-benzyl-7-(4-methoxyphenyl)-2,3-dimethyl-1H-pyrrolo[2,3-c]pyridine hydrochloride]: 0.21 µM; for `C=CCn1c(C)c(C)c2ccnc(N3CCc4ccccc4C3)c21` [Example 490, 1-allyl-7-(1,2,3,4-tetrahydroisoquinolin-2-yl)-2,3-dimethyl-1H-pyrrolo[2,3-c]pyridine nitrate]: 0.003 µM.

As to `C=CCn1c(C)c(C)c2ccnc(N3CCc4ccccc4C3CC)c21` (stereo not shown) [Example 577, 2-(1-allyl-2,3-dimethyl-1H-pyrrolo[2,3-c]pyridin-7-yl)-1-ethyl-1,2,3,4-tetrahydroisoquinoline hydrochloride], 0.14 µM corresponded to half-maximal inhibition (IC50).

Turning to `COCCn1c(C)c(C)c2ccnc(NCc3ccccc3C)c21` [Example 213, 1-(2-methoxyethyl)-2,3-dimethyl-7-(2-methylbenzylamino)-1H-pyrrolo[2,3-c]pyridine hydrochloride], the IC50 came out at 0.31 µM. For `Cc1ccc(-c2nccc3c(C)c(C)n(Cc4cccc(F)c4)c23)cc1` [Example 284, 2,3-dimethyl-1-(3-fluorobenzyl)-7-(p-tolyl)-1H-pyrrolo[2,3-c]pyridine hydrochloride] the value was 0.267 µM; for `COc1cccc(Cn2c(C)c(C)c3cc(C(=O)N4CCSCC4)nc(N4CCc5ccccc5C4)c32)c1` [Example 784, [7-(3,4-dihydro-1H-isoquinolin-2-yl)-1-(3-methoxybenzyl)-2,3-dimethyl-1H-pyrrolo[2,3-c]pyridin-5-yl]-(thiomorpholin-1-yl)-methanone hydrochloride], 0.202 µM.
